Earlier results, collected in patent US20130251697A1, “NOVEL NASAL SPRAY” (priority 2009, published 2013).

Tested on: SIRT1
Settings: life extending genes

Oc1ccc(C=Cc2cc(O)cc(O)c2)cc1 [Resveratrol]
increases genes SIRT1 expression: up to 13 fold
